The text below walks through data of US12343397B2, “Drug-resistant immune cells and methods of use thereof” (Regents of the University of Minnesota, priority 2018, dated 2025).

One assay relates to xeno-GVHD model. As to the kind of experiment: Xenogeneic GVHD model (NSG mice given human PBMC). The assay is classed as in vivo. As for the experimental part: FIGS. 11A-11D depicts the monitoring of GVHD in mice. Human PBMC (15×10^6) were injected into irradiated (50 rad) NSG mice±methylprednisolone (15 mg/kg), and signs of GVHD were monitored. FIG. 11A depicts a schematic illustration of the experiments indicating cohorts (n=7 mice each), dosing schedule, and analysis points. FIG. 11B depicts Kaplan-Meier survival curves for mice receiving PBMC only, or PBMC+prednisolone (p=0.104). FIG. 11C depicts disease progression monitored by weight loss (p=not significant). FIG. 11D depicts disease progression monitored by quantitating the number of PBMC-derived CD45+, CD4+, CD8+, and CD4+Foxp3+ T cells (p<0.03, <0.05, <0.03, and not significant, respectively). Animals were bled on day 19 for assessment.
FIGS. 12A-12D depicts the monitoring of GVHD in mice. […] FIG. 12B depicts Kaplan-Meier survival curves for mice receiving PBMC only, or PBMC+CNI (PBMC only vs. FK506 (36 mg/kg), p≤0.04). FIG. 12C depicts disease progression monitored by weight loss (p=not significant). FIG. 12D depicts disease progression monitored by quantitating the number of PBMC-derived CD45+, CD4+, CD8+, and CD4+Foxp3+ T cells (p<0.03, <0.05, <0.02, and not significant, respectively). Animals were bled on day 18 for assessment.
A follow up study has shown that xeno-GVHD pathology induced with 200 rad+1×10^7 human PBMC is more reproducible, and median survival is reduced from ˜25 days to ˜20 days.

A further assay has as its system allogeneic GVHD model. The format is in vivo. An excerpt: To test whether gene modified (GR2-CRISPR/Cas9) or gene edited (GR2-CRISPR/Cas9/AAV-CaN mut.) Tregs have increased efficacy in vivo in the presence of glucocorticoid, how glucocorticoid (methyl-prednisolone) effects GVHD in preclinical mouse models was first determined. […] For these reasons, as well as the more logistically feasible and cost effective benefits of an allogeneic GVHD model, optimized steroid use in allogeneic recipients for GVHD prevention and therapy were first tested, and then applied to a xenogeneic model to enable testing of the human Treg product. […] The T cell dose was reduced to 1.5×10^6 and moved to GVHD therapy beginning on day 3 or day 4 (rather than day 1 prophylaxis) and compared no treatment to vehicle to prednisolone (n=8/group).

The next assay deals with Tregs. As to the kind of experiment: CNI (CsA, FK506) effect on Treg survival in vitro. The format is cell-based, human. The following applies: cyclosporine 20, 200, 2000 ng/ml or FK506 3, 10, 30 ng/ml, 2-3 days; IL-2 300 U/mL; even at >3-fold over peak therapeutic values.

Excerpt for Tregs: The percent survival relative to the control Tregs without drugs is shown. IL-2 concentration of 300 U/mL was used. […] FIG. 7D depicts data showing the percent relative survival of Tregs without drug at IL-2 300 U/mL as compared to those cultured with the indicated concentrations of drug in the presence of IL-2 at 30, 100, or 300 U/mL as indicated. Mean values are shown±standard error of the mean for three (FIG. 7B) or four (FIG. 7D) separate cultures.
To model the in vivo inhibitory effects of CNI on Treg survival and expansion, banked Tregs were thawed, re-stimulated, expanded for 4±1 days and treated with or without cyclosporine (20, 200, and 2000 ng/ml) or FK506 (3, 10, 30 ng/ml) for an additional 2-3 days and relative survival was assessed by flow cytometry. Studies were performed with non-separated Tregs, naïve Tregs and memory Tregs, to determine whether one subset was differentially sensitive to Dex and CNIs and to determine whether IL-2 dependency differences might permit lower IL-2 concentrations.

Take `C=CC[C@@H]1/C=C(\C)C[C@H](C)C[C@H](OC)[C@H]2O[C@@](O)(C(=O)C(=O)N3CCCC[C@H]3C(=O)O[C@H](/C(C)=C/[C@@H]3CC[C@@H](O)[C@H](OC)C3)[C@H](C)[C@@H](O)CC1=O)[C@H](C)C[C@@H]2OC` [FK506, Tacrolimus]: the survival entry in the assay on xeno-GVHD model (12 mg/kg, P=0.45) is reported as “not significantly different”; in the assay on xeno-GVHD model (high dose, 36 mg/kg), “significantly decreased survival”. Besides, the median survival with xeno-GVHD model (12 mg/kg, controls 29 days) came out at 20 days. The “in vivo expansion of human CD45+, CD4+ and CD8+ cells” value with xeno-GVHD model (FK506 36 or 12 mg/kg, CsA 80 mg/kg, vs PBMC only controls) is “significantly reduced”. Besides, in the assay with allogeneic GVHD model (36 mg/kg/day in carboxymethylcellulose, vehicle 0% by day 37), the “day 100 survival” value is given as 55%-90. In addition, in the assay with allogeneic GVHD model (12 or 24 mg/kg/day in aqueous solution), the GVHD prophylaxis efficacy entry is listed as “poorer efficacy”. The “optimal GVHD prophylactic dose” value in the assay on allogeneic GVHD model (allogeneic GVHD model) came to 36 mg/kg/day. Also, the “effect on Treg survival in vitro” value in the assay on Tregs is “neither CsA or FK506 had a significant effect on Treg survival”.
